From PMC10004634 (PLOS ONE, 2023)
Like-named read-outs stand apart in the source and are kept apart here.

Columns and labels:
Experiment in all cases: biochemical
Set-up in all cases: KINOMEscan scanMAX competition binding, DNA-tagged kinases, qPCR read-out, percent control at 300 nM
PIK3CD = PIK3CD (Homo sapiens, UniProt O00329)
CHEK2 = CHEK2 (Homo sapiens, UniProt O96017)
CLK1 = CLK1 (Homo sapiens, UniProt P49759)
[1] = biological target: T1, TYK2(JH2domain-pseudokinase) (Homo sapiens, UniProt P29597)
T1 construct: JH2domain-pseudokinase

ERK2 = biological target: T2, ERK2 (Homo sapiens, UniProt P28482)
T2 construct: gene MAPK1

YANK1 = biological target: T3, YANK1 (Homo sapiens, UniProt Q8WU08)
T3 construct: gene STK32A
T3 sequence (Q8WU08 whole entry): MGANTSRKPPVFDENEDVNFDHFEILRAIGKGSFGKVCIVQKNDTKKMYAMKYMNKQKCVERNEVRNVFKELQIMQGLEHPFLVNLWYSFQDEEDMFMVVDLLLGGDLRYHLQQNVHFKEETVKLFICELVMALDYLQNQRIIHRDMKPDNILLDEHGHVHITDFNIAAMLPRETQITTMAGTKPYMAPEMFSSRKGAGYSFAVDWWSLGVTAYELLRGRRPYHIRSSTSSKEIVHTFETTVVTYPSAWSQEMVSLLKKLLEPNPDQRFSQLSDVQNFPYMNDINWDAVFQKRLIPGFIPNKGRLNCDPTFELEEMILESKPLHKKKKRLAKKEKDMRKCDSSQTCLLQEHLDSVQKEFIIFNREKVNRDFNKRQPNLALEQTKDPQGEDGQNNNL

PKMYT1 = PKMYT1 (Homo sapiens, UniProt Q99640)
Sequence of PKMYT1 (Q99640 whole entry): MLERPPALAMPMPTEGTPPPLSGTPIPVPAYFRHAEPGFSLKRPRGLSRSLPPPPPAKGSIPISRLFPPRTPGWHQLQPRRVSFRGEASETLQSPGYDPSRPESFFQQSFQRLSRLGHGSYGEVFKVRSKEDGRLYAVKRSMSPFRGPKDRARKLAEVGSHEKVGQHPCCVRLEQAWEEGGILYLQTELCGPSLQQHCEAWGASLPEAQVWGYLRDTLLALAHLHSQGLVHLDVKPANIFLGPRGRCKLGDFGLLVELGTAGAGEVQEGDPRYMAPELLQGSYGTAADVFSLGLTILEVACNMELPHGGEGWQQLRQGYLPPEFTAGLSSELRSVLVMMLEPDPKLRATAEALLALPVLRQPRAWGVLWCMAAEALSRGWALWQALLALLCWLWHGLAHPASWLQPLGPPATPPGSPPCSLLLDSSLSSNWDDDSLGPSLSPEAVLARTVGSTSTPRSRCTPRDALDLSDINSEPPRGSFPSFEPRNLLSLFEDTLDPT

CIT = CIT (Homo sapiens, UniProt O14578)
EGFR(E746-A750del) = EGFR(E746-A750del) (Homo sapiens, UniProt P00533, DEL746-750)
TRPM6 = TRPM6 (Homo sapiens, UniProt Q9BX84)
QSK = biological target: T4, QSK (Homo sapiens, UniProt Q9Y2K2)
T4 construct: gene SIK3
T4 sequence (Q9Y2K2 whole entry): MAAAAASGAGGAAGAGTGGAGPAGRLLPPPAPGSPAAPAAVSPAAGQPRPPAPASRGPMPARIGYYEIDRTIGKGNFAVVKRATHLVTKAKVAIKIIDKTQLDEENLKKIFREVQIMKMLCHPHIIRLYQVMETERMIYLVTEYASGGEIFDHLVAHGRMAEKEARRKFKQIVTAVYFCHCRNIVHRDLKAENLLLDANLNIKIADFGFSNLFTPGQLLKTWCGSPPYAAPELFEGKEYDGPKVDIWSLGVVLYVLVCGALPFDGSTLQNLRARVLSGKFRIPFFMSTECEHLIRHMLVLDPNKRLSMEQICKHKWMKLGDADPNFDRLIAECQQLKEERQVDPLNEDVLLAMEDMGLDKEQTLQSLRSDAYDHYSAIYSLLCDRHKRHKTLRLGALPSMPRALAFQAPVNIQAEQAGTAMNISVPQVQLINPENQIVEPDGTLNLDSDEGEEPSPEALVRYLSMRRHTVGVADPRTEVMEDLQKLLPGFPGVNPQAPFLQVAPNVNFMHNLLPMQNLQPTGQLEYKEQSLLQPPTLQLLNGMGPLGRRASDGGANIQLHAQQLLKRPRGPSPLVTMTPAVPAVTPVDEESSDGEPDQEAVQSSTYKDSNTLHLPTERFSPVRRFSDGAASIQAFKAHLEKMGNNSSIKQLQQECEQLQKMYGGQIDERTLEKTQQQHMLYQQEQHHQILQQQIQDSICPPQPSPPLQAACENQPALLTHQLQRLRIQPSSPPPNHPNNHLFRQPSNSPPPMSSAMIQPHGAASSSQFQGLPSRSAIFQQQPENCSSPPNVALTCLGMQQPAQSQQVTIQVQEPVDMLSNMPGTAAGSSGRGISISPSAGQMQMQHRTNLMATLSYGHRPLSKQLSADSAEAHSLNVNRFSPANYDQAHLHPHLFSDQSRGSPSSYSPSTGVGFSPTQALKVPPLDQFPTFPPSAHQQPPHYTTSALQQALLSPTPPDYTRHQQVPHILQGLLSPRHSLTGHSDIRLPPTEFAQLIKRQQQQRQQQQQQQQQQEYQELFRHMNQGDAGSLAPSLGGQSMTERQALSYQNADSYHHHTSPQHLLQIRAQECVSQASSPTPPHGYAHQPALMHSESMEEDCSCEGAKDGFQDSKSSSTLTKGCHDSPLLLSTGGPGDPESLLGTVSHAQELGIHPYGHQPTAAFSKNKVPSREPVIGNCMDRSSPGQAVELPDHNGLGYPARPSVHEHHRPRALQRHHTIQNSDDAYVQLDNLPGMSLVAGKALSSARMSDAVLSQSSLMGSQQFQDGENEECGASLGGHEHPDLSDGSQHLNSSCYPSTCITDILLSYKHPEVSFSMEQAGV

LYN = LYN (Homo sapiens, UniProt P07948)
Sequence of LYN (P07948 whole entry): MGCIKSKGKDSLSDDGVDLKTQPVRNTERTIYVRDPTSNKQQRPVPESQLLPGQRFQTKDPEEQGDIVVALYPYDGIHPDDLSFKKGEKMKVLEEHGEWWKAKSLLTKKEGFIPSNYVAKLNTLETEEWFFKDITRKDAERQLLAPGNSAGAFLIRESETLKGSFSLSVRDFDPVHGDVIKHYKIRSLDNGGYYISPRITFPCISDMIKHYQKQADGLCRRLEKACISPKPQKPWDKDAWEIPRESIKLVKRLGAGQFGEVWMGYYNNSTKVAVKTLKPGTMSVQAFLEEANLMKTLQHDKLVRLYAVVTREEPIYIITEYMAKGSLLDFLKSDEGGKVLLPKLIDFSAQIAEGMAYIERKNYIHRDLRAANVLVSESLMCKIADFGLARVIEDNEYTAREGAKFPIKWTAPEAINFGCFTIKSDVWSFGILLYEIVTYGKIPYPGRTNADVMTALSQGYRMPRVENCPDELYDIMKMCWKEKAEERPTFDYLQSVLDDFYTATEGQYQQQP

BMPR2 = BMPR2 (Homo sapiens, UniProt Q13873)
[2] = biological target: T5, ABL1(Y253F)-phosphorylated (Homo sapiens, UniProt P00519, Y253F)
T5 construct: phosphorylated

DCAMKL2 = biological target: T6, DCAMKL2 (Homo sapiens, UniProt Q8N568)
T6 construct: gene DCLK2

EGFR(L858R,T790M) = EGFR(L858R,T790M) (Homo sapiens, UniProt P00533, L858R/T790M)
Sequence of EGFR(L858R,T790M) (P00533 whole entry T790M/L858R): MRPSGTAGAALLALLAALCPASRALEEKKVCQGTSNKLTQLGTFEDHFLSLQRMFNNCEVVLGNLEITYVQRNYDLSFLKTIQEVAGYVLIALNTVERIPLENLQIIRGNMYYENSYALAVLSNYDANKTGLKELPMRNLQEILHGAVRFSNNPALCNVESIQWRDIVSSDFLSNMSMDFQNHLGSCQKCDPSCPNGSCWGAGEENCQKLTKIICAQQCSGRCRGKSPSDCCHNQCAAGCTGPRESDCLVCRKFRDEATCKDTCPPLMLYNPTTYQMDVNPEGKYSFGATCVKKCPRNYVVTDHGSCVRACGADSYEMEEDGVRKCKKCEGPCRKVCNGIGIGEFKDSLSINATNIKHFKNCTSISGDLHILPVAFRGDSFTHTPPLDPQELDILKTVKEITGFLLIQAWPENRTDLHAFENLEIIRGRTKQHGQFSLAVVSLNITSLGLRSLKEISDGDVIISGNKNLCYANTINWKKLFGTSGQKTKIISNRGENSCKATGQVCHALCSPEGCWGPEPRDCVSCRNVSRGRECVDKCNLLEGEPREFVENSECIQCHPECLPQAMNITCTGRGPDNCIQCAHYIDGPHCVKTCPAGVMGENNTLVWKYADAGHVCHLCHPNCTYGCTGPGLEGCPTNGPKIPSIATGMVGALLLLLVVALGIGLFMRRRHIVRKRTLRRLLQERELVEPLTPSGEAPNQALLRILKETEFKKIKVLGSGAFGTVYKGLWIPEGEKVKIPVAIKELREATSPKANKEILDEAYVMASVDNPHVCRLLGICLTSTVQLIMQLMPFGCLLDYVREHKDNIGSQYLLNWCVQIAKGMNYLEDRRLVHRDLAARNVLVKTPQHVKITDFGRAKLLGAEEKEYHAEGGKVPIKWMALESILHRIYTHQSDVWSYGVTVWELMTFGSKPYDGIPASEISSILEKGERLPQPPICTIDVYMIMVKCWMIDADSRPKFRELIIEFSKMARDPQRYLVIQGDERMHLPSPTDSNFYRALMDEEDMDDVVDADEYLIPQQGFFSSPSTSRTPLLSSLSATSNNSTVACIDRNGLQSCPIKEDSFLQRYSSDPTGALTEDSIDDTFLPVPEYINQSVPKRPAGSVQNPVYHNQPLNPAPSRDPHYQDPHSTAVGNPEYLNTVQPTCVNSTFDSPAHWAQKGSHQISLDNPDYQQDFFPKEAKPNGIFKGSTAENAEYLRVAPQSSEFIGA

PIP5K1A = PIP5K1A (Homo sapiens, UniProt Q99755)
MET(Y1235D) = MET(Y1235D) (Homo sapiens, UniProt P08581, Y1235D)
WEE2 = WEE2 (Homo sapiens, UniProt P0C1S8)
FES = FES (Homo sapiens, UniProt P07332)
CSNK2A1 = CSNK2A1 (Homo sapiens, UniProt P68400)
Sequence of CSNK2A1 (P68400 whole entry): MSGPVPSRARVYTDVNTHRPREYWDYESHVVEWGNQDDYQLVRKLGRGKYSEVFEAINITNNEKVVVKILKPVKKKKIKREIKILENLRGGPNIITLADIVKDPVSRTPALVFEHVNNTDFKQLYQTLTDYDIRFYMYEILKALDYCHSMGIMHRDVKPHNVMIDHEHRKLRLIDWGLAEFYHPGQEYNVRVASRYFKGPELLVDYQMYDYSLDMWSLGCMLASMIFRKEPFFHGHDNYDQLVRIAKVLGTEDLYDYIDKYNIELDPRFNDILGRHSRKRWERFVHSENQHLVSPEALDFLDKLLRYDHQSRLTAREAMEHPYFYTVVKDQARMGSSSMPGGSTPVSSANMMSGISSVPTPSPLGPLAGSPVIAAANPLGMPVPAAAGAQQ

HPK1 = biological target: T7, HPK1 (Homo sapiens, UniProt Q92918)
T7 construct: gene MAP4K1

HCK = HCK (Homo sapiens, UniProt P08631)
[3] = read-out: Percent control / Acalabrutinib
[4] = read-out: Percent control / Ibrutinib
[5] = read-out: Percent control / Tirabrutinib
[6] = read-out: Percent control / Zanubrutinib

Sequence of CHEK2 (O96017 whole entry): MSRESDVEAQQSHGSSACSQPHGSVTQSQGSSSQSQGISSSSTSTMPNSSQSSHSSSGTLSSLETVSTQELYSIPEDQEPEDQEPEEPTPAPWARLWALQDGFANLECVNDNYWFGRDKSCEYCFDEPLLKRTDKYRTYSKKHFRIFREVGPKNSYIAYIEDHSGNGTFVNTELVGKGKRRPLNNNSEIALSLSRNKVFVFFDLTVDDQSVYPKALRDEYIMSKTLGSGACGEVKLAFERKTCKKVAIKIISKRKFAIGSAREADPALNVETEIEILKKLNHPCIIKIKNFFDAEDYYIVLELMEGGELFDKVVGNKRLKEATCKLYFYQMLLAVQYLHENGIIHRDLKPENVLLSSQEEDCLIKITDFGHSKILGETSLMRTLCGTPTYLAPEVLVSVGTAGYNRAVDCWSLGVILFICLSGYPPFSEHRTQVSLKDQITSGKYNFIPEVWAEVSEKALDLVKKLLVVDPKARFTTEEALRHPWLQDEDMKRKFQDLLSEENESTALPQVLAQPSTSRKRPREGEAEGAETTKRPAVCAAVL

## CC#CC(=O)N1CCC[C@H]1c1nc(-c2ccc(C(=O)Nc3ccccn3)cc2)c2c(N)nccn12 [Acalabrutinib]
PIK3CD; [3]
  remaining binding at 0.3 µM: 88%
CHEK2; [3]
  remaining binding at 0.3 µM: 84%
CLK1; [3]
  remaining binding at 0.3 µM: 92%
[1]; [3]
  remaining binding at 0.3 µM: 97%
ERK2; [3]
  remaining binding at 0.3 µM: 96%
YANK1; [3]
  remaining binding at 0.3 µM: 97%
PKMYT1; [3]
  remaining binding at 0.3 µM: 94%
CIT; [3]
  remaining binding at 0.3 µM: 81%
EGFR(E746-A750del); [3]
  remaining binding at 0.3 µM: 96%
TRPM6; [3]
  remaining binding at 0.3 µM: 96%
QSK; [3]
  remaining binding at 0.3 µM: 90%
LYN; [3]
  remaining binding at 0.3 µM: 88%
BMPR2; [3]
  remaining binding at 0.3 µM: 99%
[2]; [3]
  remaining binding at 0.3 µM: 90%
DCAMKL2; [3]
  remaining binding at 0.3 µM: 90%
EGFR(L858R,T790M); [3]
  remaining binding at 0.3 µM: 97%
PIP5K1A; [3]
  remaining binding at 0.3 µM: 83%
MET(Y1235D); [3]
  remaining binding at 0.3 µM: 86%
WEE2; [3]
  remaining binding at 0.3 µM: 89%
FES; [3]
  remaining binding at 0.3 µM: 90%
CSNK2A1; [3]
  remaining binding at 0.3 µM: 99%
HPK1; [3]
  remaining binding at 0.3 µM: 93%

## C=CC(=O)N1CCC[C@@H](n2nc(-c3ccc(Oc4ccccc4)cc3)c3c(N)ncnc32)C1 [Ibrutinib]
HCK; [4]
  remaining binding at 0.3 µM: 4.5%
WEE2; [4]
  remaining binding at 0.3 µM: 93%
CSNK2A1; [4]
  remaining binding at 0.3 µM: 90%

## CC#CC(=O)N1CC[C@@H](n2c(=O)n(-c3ccc(Oc4ccccc4)cc3)c3c(N)ncnc32)C1 [Tirabrutinib]
EGFR(E746-A750del); [5]
  remaining binding at 0.3 µM: 100%
LYN; [5]
  remaining binding at 0.3 µM: 76%
HCK; [5]
  remaining binding at 0.3 µM: 57%
EGFR(L858R,T790M); [5]
  remaining binding at 0.3 µM: 100%

## C=CC(=O)N1CCC([C@@H]2CCNc3c(C(N)=O)c(-c4ccc(Oc5ccccc5)cc4)nn32)CC1 [Zanubrutinib]
PIK3CD; [6]
  remaining binding at 0.3 µM: 37%
CHEK2; [6]
  remaining binding at 0.3 µM: 98%
CLK1; [6]
  remaining binding at 0.3 µM: 90%
[1]; [6]
  remaining binding at 0.3 µM: 82%
ERK2; [6]
  remaining binding at 0.3 µM: 100%
YANK1; [6]
  remaining binding at 0.3 µM: 75%
PKMYT1; [6]
  remaining binding at 0.3 µM: 81%
CIT; [6]
  remaining binding at 0.3 µM: 100%
TRPM6; [6]
  remaining binding at 0.3 µM: 63%
QSK; [6]
  remaining binding at 0.3 µM: 45%
BMPR2; [6]
  remaining binding at 0.3 µM: 93%
[2]; [6]
  remaining binding at 0.3 µM: 85%
DCAMKL2; [6]
  remaining binding at 0.3 µM: 91%
PIP5K1A; [6]
  remaining binding at 0.3 µM: 92%
MET(Y1235D); [6]
  remaining binding at 0.3 µM: 88%
FES; [6]
  remaining binding at 0.3 µM: 100%
HPK1; [6]
  remaining binding at 0.3 µM: 100%
